Experimental data published in patent publication US20080319043A1, “3,6-Disubstituted Azabicyclo (3.1.0) Hexane Derivatives as Muscarinic Receptor Antagonists” (priority 2005, published 2008).

Legend:
isolated rat bladder = test: tissue or blood; conditions: read-out: pKb (converted)

Row | SMILES | Kb (isolated rat bladder) | melting point
1 | Nc1cccc(CN2CC3C(CNC(=O)C(O)(c4ccccc4)C4CCCC4)C3C2)n1 (centres unmarked) [Compound No. 51, N-({3-[(6-Aminopyridin-2-yl)methyl]-3-azabicyclo[3.1.0]hex-6-yl}methyl)-2-cyclopentyl-2-hydroxy-2-phenylacetamide] | 0.00251 to 0.0398 µM | 
2 | CC1C2C(CNC(=O)C(O)(c3ccccc3)C3CCCC3)C2CN1Cc1ccccc1 (centres unmarked) [Compound No. 60, N-[(3-Benzyl-2-methyl-3-azabicyclo[3.1.0]hex-6-yl)methyl]-2-cyclopentyl-2-hydroxy-2-phenylacetamide] | 0.00251 to 0.0398 µM | 
3 | O=C(NCC1C2CNCC21)C(O)(c1ccccc1)c1cccs1 (centres unmarked) [Compound No. 18, N-(3-Azabicyclo[3.1.0]hex-6-ylmethyl)-2-hydroxy-2-phenyl-2-(2-thienyl)acetamide] |  | 70 to 75 °C
4 | Cc1cccc(C(O)(C(=O)OCC2C3CNCC32)c2cccc(C)c2)c1 (centres unmarked) [Compound No. 27, 3-Azabicyclo[3.1.0]hex-6-ylmethyl hydroxy[bis(3-methylphenyl)]acetate] |  | 105 to 108 °C
5 | O=C(NCC1C2CN(Cc3ccc4c(c3)OCO4)CC12)C(O)(c1ccccc1)C1CCCCC1 (centres unmarked) [Compound No. 80, N-{[3-(1,3-Benzodioxol-5-ylmethyl)-3-azabicyclo[3.1.0]hex-6-yl]methyl}-2-cyclohexyl-2-hydroxy-2-phenylacetamide] | 0.00251 to 0.0398 µM | 
